Legend:
K-562 cells = experiment: Leukemia cell line CC50 assay (Cell Counting Kit-8, 5 days), K-562; format: cell-based; details: Homo sapiens, 120 h, CML, K562 cell line
Procedure: K-562 cells (human chronic myelogenous leukemia) from ATCC Cat. no CCL-243 were grown in complete cell medium: IMDM (w. L-glutamine, 25 mM Hepes, w/o Phenol red) Cat no. 21056-023 (Fisher Scientific), 10% Fetal Bovine serum (FBS) HyClone Cat. no. SV30160.03, lot no RAB35924 (GE Healthcare Life Sciences), Penicillin 50u/ml/Streptomycin 0.05 mg/ml Cat. no. SV30010 HyClone (Fisher Scientific)
(§1) Leukemia cells were grown in a cell culture flask 75 cm2 with approximately 100 ml complete cell medium. The cells were counted using a Scepter-hand held automated cell counter, using 60 μm sensors (Millipore) and suspended in complete cell medium to 2×10^5cells. 100 μl of the cell suspension were seeded to all wells (2×10^4 cells/well).
(§2) The compounds were tested in twelve concentrations, […], 50 ? BM−5×10^−10 μM. 100 μl from a compound dilution plate were transferred to the cell assay plate=200 μl/well total volume and incubated for 5 days, at 37° C., 5% CO2 incubator.
(§3) After 5 days, 10 μl of KIT-8 was added and the culture was incubated for 3-4 hours, at 37° C., 5% CO2 incubator.
(§4) Plate were read in the spectrophotometer at wavelength 450 nm with a reference filter of 620 nm.
(§5) CC50 values are calculated by plotting the degree of inhibition (compared to the vehicle ctrl) against the logarithm of the compound concentration. […]

MOLT-4 cells = experiment: Leukemia cell line CC50 assay (Cell Counting Kit-8, 5 days), MOLT-4; format: cell-based; details: Homo sapiens, 120 h, ALL (T cell), MOLT-4 cell line
Procedure: MOLT-4 cells (human T-cell, acute lymphoblastic leukemia) from ATCC Cat. no CRL-1582 were grown in complete cell medium: RPMI-1640 medium Gibco Cat. no.11835-063 (Fisher Scientific), 10% Fetal Bovine serum (FBS) HyClone Cat. no. SV30160.03, lot no RAB35924 (GE Healthcare Life Sciences), Penicillin 50 u/ml/Streptomycin 0.05 mg/ml PAA Cat. no. P11-010 from Fisher Scientific
as §1, §2, §3, §4, §5

leukemia cell lines = experiment: Average CC50 over the leukemia cell lines of Table 1; format: cell-based; details: average over the leukemia cell lines of Table 1
Procedure: as §1
CC50 values are calculated by plotting the degree of inhibition (compared to the vehicle ctrl) against the logarithm of the compound concentration. Result values in the dilution series are fitted to a 4-parameter sigmoidal dose-response curve described by the expression:
[formula] where: • A=Minimum • B=Slope. • C=Inflection point. The inflection point is defined as the point on the curve where the curvature changes direction or signs. • D=Maximum • F=fraction inhibition • The CC50 value is the x-value giving F=0.5, as tabulated in Table 1 below: […]

U-937 cells = experiment: Leukemia cell line CC50 assay (Cell Counting Kit-8, 5 days), U-937; format: cell-based; details: Homo sapiens, U-937, 120 h, AML, U937 cell line
Procedure: (§6) U-937 cells (human histiocytic lymphoma) from ATCC Cat. no CRL-1593.2 were grown in complete cell medium: RPMI-1640 medium Gibco Cat. no.11835-063 (Fisher Scientific), 10% Fetal Bovine serum (FBS), HyClone Cat. no. SV30160.03, lot no RAB35924 (GE Healthcare Life Sciences), Penicillin 50u/ml/Streptomycin 0.05 mg/ml PAA Cat. no. P11-010 from Fisher Scientific.
as §1, §2, §3, §4, §5

CEM cells = experiment: Leukemia cell line CC50 assay (Cell Counting Kit-8, 5 days), CEM; format: cell-based; details: Homo sapiens, CCRF-CEM, 120 h, ALL (T cell)
Procedure: CEM cells (T-lymphoblast from acute lymphoblastic leukemia) acquired from Swedish Institute for Infectious Disease Control (SMI) were grown in complete cell medium: RPMI-1640 medium (without L-glutamine) Cat. no. R7509 (Sigma Aldrich), 10% Fetal Bovine serum (FBS) HyClone Cat. no. SV30160.03, lot no RAB35924 (GE Healthcare Life Sciences), Penicillin 50u/ml/Streptomycin 0.05 mg/ml PAA Cat. no. P11-010 from Fisher Scientific, 2 mM Ultra glutamine 1 Cat. no BE17-605E/U1 (Lonza). • Cell culture flask 75 cm2, Cat. no. 83.1813 from Sarstedt AB. • Compound dilution plate, 96-well, V-bottom PP plate, Nunc Cat. no.249944 from Thermo Scientific. • Cell assay plate, 96-well, Cat. no. 128009296 from Fisher Scientific • Cell Counting Kit-8 CK04 from Dojindo. • Test compounds were made up to 10 mM stock solution in DMSO
as §1, with “cells/well). […]” for “cells/well).”
as §4, §5

Raji cells = experiment: Leukemia cell line CC50 assay (Cell Counting Kit-8, 5 days), Raji; format: cell-based; details: Homo sapiens, 120 h, BL (B cell)
Procedure: as §6, with “Raji” for “U-937”, “(B-lymphocyte from Burkitt's” for “(human histiocytic”, “CCL-86” for “CRL-1593.2”, “50 u/ml/Streptomycin” for “50u/ml/Streptomycin”
as §1, §2, §3, §4, §5

MV4-11 cells = experiment: Leukemia cell line CC50 assay (Cell Counting Kit-8, 5 days), MV4-11; format: cell-based; details: Homo sapiens, MV4-11, 120 h, AML, MV411 cell line
Procedure: MV4-11 cells (human B-myelomonocytic leukemia) from ATCC Cat no. CRL-9591 were grown in complete cell medium: IMDM (w. GLUTAMAX-1) Cat no. 31980022 (Fisher Scientific), 10% Fetal Bovine serum (FBS) HyClone Cat. no. SV30160.03, lot no RAB35924 (GE Healthcare Life Sciences), Penicillin 50 u/ml/Streptomycin 0.05 mg/ml PAA Cat. no. P11-010 from Fisher Scientific.
as §1, §2, §3, §4, §5

THP-1 cells = experiment: Leukemia cell line CC50 assay (Cell Counting Kit-8, 5 days), THP-1; format: cell-based; details: Homo sapiens, THP-1, 120 h, AML, THP1 cell line
Procedure: THP-1 cells (human acute monocytic leukemia) from ATCC Cat. no TIB-202 were grown in complete cell medium: RPMI-1640 medium Gibco Cat. no.11835-063 (Fisher Scientific), 10% Fetal Bovine serum (FBS), HyClone Cat. no. SV30160.03, lot no RAB35924 (GE Healthcare Life Sciences), Penicillin 50 u/ml/Streptomycin 0.05 mg/ml PAA Cat. no. P11-010 from Fisher Scientific.
as §1, §2, §3, §4, §5

HL60 cells = experiment: Leukemia cell line CC50 assay (Cell Counting Kit-8, 5 days), HL60; format: cell-based; details: Homo sapiens, HL-60, 120 h, AML
Procedure: HL60 cells (human acute promyelocytic leukemia) from ATCC Cat. no CCL-240 were grown in complete cell medium: IMDM Cat. no 330-2005 (ATCC), 20% Fetal Bovine serum (FBS) HyClone Cat. no. SV30160.03, lot no RAB35924 (GE Healthcare Life Sciences), Penicillin 50u/ml/Streptomycin 0.05 mg/ml PAA Cat. no. P11-010 from Fisher Scientific
as §1, §2, §3, §4
CC50 values are calculated by plotting the degree of inhibition (compared to the vehicle ctrl) against the logarithm of the compound concentration. Result values in the dilution series are fitted to a 4-parameter sigmoidal dose-response curve described by the expression: […]

[1] = Blood stability, murine whole blood; format: in vitro ADME
Procedure: Stability of compounds in blood was assessed following incubation in murine or human whole blood for up to 120 minutes. Remaining compound was quantified by LC-MS/MS and resulting data were used to calculate intrinsic clearance (CLint) values: […]

[2] = Tolerability in SCID mice with human Hep3b xenograft (body weight, clinical signs); format: in vivo, mouse; details: 25 mg/kg i.p. BID x 5, SCID mice
Procedure: Compounds were prepared in PBS, n=9 mice per group. Body weights were monitored daily in three SCID mouse populations:
wherein the 5 day BID commenced 21 days after subcutaneous implantation with a human Hep3b xenograft.

[3] = test system: advanced, cytarabine-treatment failure, leukemia; details: cited from earlier work

| stability in mouse blood [1] | Compound | CC50 (K-562 cells) [nM] | CC50 (MOLT-4 cells) [nM] | CC50 (leukemia cell lines) [nM] | CC50 (U-937 cells) [nM] | CC50 (CEM cells) [nM] | CC50 (Raji cells) [nM] | CC50 (MV4-11 cells) [nM] | CC50 (THP-1 cells) [nM] | CC50 (HL60 cells) [nM] | tolerability observations (bodyweight, clinical signs) [2] | patients with transient decrease in peripheral blood and marrow blasts [3] |
| --- | --- | --- | --- | --- | --- | --- | --- | --- | --- | --- | --- | --- |
| – | CCC[C@H](C)OC(=O)[C@H](C)NP(=O)(OC[C@H]1OC[C@@H](n2cc(F)c(N)nc2=O)O1)Oc1cccc(C2CC2)c1 (single isomer, unassigned) [Prior art Ex 29 dia-2, reference compound] | 720 | 2.9 | 310 | 240 | 98 | 850 | 7.8 | 250 | – | – | – |
| – | CC[C@@H](C)OC(=O)[C@H](C)NP(=O)(OC[C@H]1OC[C@@H](n2cc(F)c(N)nc2=O)O1)Oc1ccccc1 (single isomer, unassigned) [Prior art Ex 32 dia 2, reference compound] | 440 | 3.8 | 350 | 240 | 52 | 1000 | 8.1 | 200 | 890 | – | – |
| stable in mouse blood | Nc1nc(=O)n([C@@H]2CO[C@H](CO)O2)cc1F [5-fluorotroxacitabine, 4-amino-5-fluoro-1-((25,4S)-2-(hydroxymethyl)-1,3-dioxolan-4-yl)pyrimidin-2(1H)-one, reference compound] | – | – | – | – | – | – | – | – | – | – | – |
| – | Nc1ccn([C@@H]2CO[C@H](CO)O2)c(=O)n1 [troxacitabine] | – | – | – | – | – | – | – | – | – | persistent bodyweight loss and clinical signs including piloerection, hunched posture and subdued behavior | Four |

Source: patent US12479870B2, “Base-modified cytidine nucleotides for leukemia therapy” (MEDIVIR AB, priority 2018, dated 2025)
